According to patent US5437980A, “Phenanthridium dye staining of nucleic acids in living cells” (Molecular Probes, Inc., priority 1993, dated 1995):

Key:
[1] = test system: 3T3 mouse fibroblast cells; assay: Staining of nuclei in adherent cultured mammalian cells (Example 9); type: cell-based; settings: 2 μM dye
Procedure: 3T3 mouse fibroblast cells are grown on coverslips in calf serum-supplemented DMEM medium. The coverslips of cells are washed in HBSS+. 5-DAPP/LIVE dye solutions are prepared to a final concentration of 2 μM in DMEM without serum. One group of 3T3 cells is treated with 300 μM chloroquine (group 1). These cells and control cells (group 2) not treated with chloroquine are incubated at 37° C. for 30 min. The two groups of cells are transferred to DMEM plus 5-DAPP/LIVE. The cells are incubated in the dye-containing medium for 30 min at room temperature and are subsequently washed in HBSS+and viewed by epifluorescence microscopy using a long-pass fluorescein or a rhodamine filter set.

gram-negative bacteria = settings: mild conditions; application Ser. No. 08/047,683; cited from earlier work
[2] = test system: epidermal tissue of the bulb, Alium spp.; assay: Staining of plant cell tissue (Example 6); type: cell-based; settings: 10 μM dye, 30 min, room temperature
Procedure: A small section of tissue from the bulb is removed with a razor blade. 0.5 mL of a 10 μM solution of the 5-DAPP/LIVE dye in distilled water is dispensed into a small glass dish. The epidermal tissue is cut into sections and placed in the dye solution. The tissue is stained for 30 min at room temperature in the dark then the tissue preparation is mounted in the presence of the dye between a coverglass and the slide.

sea urchin sperm = assay: Staining of sea urchin sperm (Example 8); type: cell-based; settings: 2 μM dye, 5 min, room temperature
Procedure: Sperm cells are released from sea urchins by injection of KCl and the cells are concentrated by low speed centrifugation and suspended in 1 mL artificial seawater (ASW) at room temperature. Sufficient 10 mM dye stock solution is added to the sperm suspension to obtain a final dye concentration of 2 μM. The sperm are labeled by incubation in the dye solution for 5 min at room temperature. The sperm are washed by centrifugation at 2000 rpm for 1 min and then resuspended in 1 mL ASW before mounting and observation.

## CCCCCC[n+]1c(-c2ccccc2)c2cc(N)ccc2c2ccc(N)cc21 [hexidium]
[1]; group 1, 300 μM chloroquine
  staining distribution, chloroquine-treated cells: stained throughout, but with a greater relative intensity of staining in the nucleus
[1]; group 2, no chloroquine
  staining distribution, control cells: relatively equal staining in the nucleus and cytoplasm
[1]; one half hour, long-pass fluorescein filter (red with rhodamine excitation)
  color of nucleus and cytoplasm: orange
gram-negative bacteria
  staining of live gram-negative bacteria: lightly stain some gram negative organisms
[2]
  cell wall / surface staining: more hazy surface staining occurs with ethidium and butidium than with hexidium or octidium
Sea urchin sperm
  effect on motility of the sperm or ability to fertilize a sea urchin egg: no apparent effect
  staining of sperm nuclei: sperm nuclei stain brightly
